Results: patent publication US8980846B2, “Composition containing styraxlignolide A or the aglycone thereof as an active ingredient for preventing or treating asthma” (Korea Research Institute of Bioscience and Biotechnology, priority 2010, dated 2015)
Like-named read-outs stand apart in the source and are kept apart here.

How the values were obtained:
[1] = test system: alanine aminotransferase (ALT) and aspartate aminotransferase (AST) in serum; type: in vivo
Description: (§1) To prepare bronchial asthma-induced experimental animals, six-week-old Balb/c female mice of mean weight about 20 g were used. After one week of adaptation, individuals which had no observed abnormality on a basic physical examination were targeted. 200 μL of phosphate buffered saline (PBS)(pH 7.4) in which 2 mg of aluminum hydroxide (A8222, Sigma, St. Louis, Mo.) and 20 μg of ovalbumin (A5503, Sigma, St. Louis, Mo.) were suspended was injected into the peritoneal cavity at two-week intervals to result in sensitization. On days 28 to 30 after the first intraperitoneal administration of ovalbumin, inhalation challenge was performed for 30 min with 1% ovalbumin using an ultrasonic atomizer. 24 hours after the last antigen administration, airway hyperresponsiveness was measured. After 24 hours, a lethal dose of pentobarbital (Entobar®, Hanlim Pharm Co., Ltd.) was administered, body weight measurement and bronchotomy were performed, and bronchoalveolar lavage was performed with a total 1.2 mL of physiological saline, and then, samples were collected. […] Eight white mice were used for each group. Experimental groups for homoegonol were a group (hE7.5) in which animals were orally administered with 7.5 mg/kg homoegonol 1 hour prior to ovalbumin inhalation, a group (hE15) in which animals were orally administered with 15 mg/kg homoegonol 1 hour prior to ovalbumin inhalation, and a group (hE30) in which animals were orally administered with 30 mg/kg homoegonol 1 hour prior to ovalbumin inhalation, and five white mice were used for each group.
To examine liver toxicity of styraxlignolide A, a commercially available ELISA kit (BECKMAN Coulter, Inc., Fullerton, Calif., USA) was used to measure alanine aminotransferase (ALT) and aspartate aminotransferase (AST) in serum.

[2] = test system: inflammatory cells in bronchoalveolar lavage fluid; assay: Inflammatory cell counts in bronchoalveolar lavage fluid (Diff-Quick staining); type: in vivo, Balb/c female mice; settings: asthma-induced mice, styraxlignolide A study
[3] = test system: TGF-β1; assay: TGF-β1 in bronchoalveolar lavage fluid; type: in vivo, Balb/c female mice; settings: asthma-induced mice, homoegonol study; 30 mg/kg PO
Description: as §1
(§2) To examine the effect of homoegonol on airway remodeling, generation of TGF-β1 and IL-17 in bronchoalveolar lavage fluid was measured.

[4] = Body weight in asthma-induced mice; type: in vivo, Balb/c female mice
Description: as §1
(§3) To determine an effect of styraxlignolide A on reduction in body weight in asthma-induced mice, body weight of each mouse prepared in Example 2 was measured. For statistical analyses for all measurements, means and standard errors (mean±S.E.) according to a number of variables were calculated, and comparison between each group was analyzed by performing a Mann-whitney U test using SPSS 10.0. Statically significance was accepted at p<0.05.
as §3, with “homoegonol” for “styraxlignolide A”

[5] = test system: ovalbumin-specific IgE; assay: IgE levels in serum and bronchoalveolar lavage fluid (ELISA); type: in vivo, Balb/c female mice; settings: asthma-induced mice
Description: as §1
To measure serum and bronchoalveolar lavage fluid ovalbumin-specific IgE levels caused by administration of styraxlignolide A, an immunoenzyme technique was used. 20 μg/mL of ovalbumin was dissolved in a 0.1 M NAHCO3 buffer (pH 8.3), and was placed into a 96-well flat bottom ELISA plate to be coated at 4° C. overnight. Non-specific binding was blocked with PBS containing 1% bovine serum albumin, and a serum sample was diluted 1:400 and was allowed to react at room temperature for 2 hours. Then, the plate was washed well, and anti-mouse IgE monoclonal antibody was diluted 1:300 and was allowed to react for 2 hours. Then, HRP-conjugated goat anti-rat IgG polyclonal antibody which was coupled to peroxidase was diluted 1:4000 and was allowed to react at room temperature for 1 hour, and then, was washed. For color development, 3,3′,5,5′-tetramethylbezidine substrate was allowed to react, and the spectroscopic absorbance was measured at 650 nm.
To measure IgE levels which are correlated with severity of asthma to examine the effect of homoegonol on asthma, IgE levels in serum and bronchoalveolar lavage fluid were measured according to the method in <Experimental Example 4>.

[6] = test system: inflammatory cells in bronchoalveolar lavage fluid; assay: Inflammatory cell counts in bronchoalveolar lavage fluid (Diff-Quick staining); type: in vivo, Balb/c female mice; settings: asthma-induced mice
Description: as §1
Bronchoalveolar lavage fluid was collected from individuals of each experimental group in <Example 2> and right after the collection, fluid was stained with trypan blue. The number of total cells except dead cells was calculated using a hemocytometer. Then, Diff-Quick staining (Sysmex, Swizerland) was performed after smear preparation with Cytospin II, and eosinophils and other inflammatory cells were differentially counted.
To examine the effect of homoegonol on asthma, variation in the numbers of asthma-related inflammatory cells was measured according to the method in <Experimental Example 3>.

[7] = test system: goblet cells; assay: Ratio of goblet cells to bronchial epithelial cells (PAS staining); type: in vivo, Balb/c female mice; settings: asthma-induced mice
Description: as §1
Lungs removed from each individual were subjected to conventional formalin fixation and paraffin embedding, and permanent section slides of 4 μm thickness were prepared, and periodic acid Schiff (PAS) staining was performed to determine goblet cells. Proliferation of goblet cells was assessed by measuring the ratio of goblet cells to bronchial epithelial cells.
In accordance with the method in <Experimental Example 7-2>, the ratio of goblet cells which were determined by periodic acid-Schiff staining to bronchial epithelial cells were measured to assess proliferation of goblet cells.

[8] = test system: IL-17; assay: IL-17 in bronchoalveolar lavage fluid; type: in vivo, Balb/c female mice; settings: asthma-induced mice, homoegonol study; 30 mg/kg PO
Description: as §1, §2

[9] = test system: airway hyperresponsiveness; assay: Airway hyperresponsiveness, Penh by one chamber plethysmography after methacholine inhalation; type: in vivo, Balb/c female mice; settings: asthma-induced mice; for Penh values: homoegonol study, 30 mg/kg PO
Description: as §1, with “Experimental groups for homoegonol were a group (hE7.5) in which animals were orally administered with 7.5 mg/kg homoegonol 1 hour prior to ovalbumin inhalation, a group (hE15) in which animals were orally administered with 15 mg/kg homoegonol 1 hour prior to ovalbumin inhalation, and a group (hE30) in which animals were orally administered with 30 mg/kg homoegonol 1 hour prior to ovalbumin inhalation, and five white mice were used for each group.” left out
The effect of styraxlignolide A on airway hyperresponsiveness caused by asthma occurrence was examined by measuring airway resistance with one chamber plethysmography (All medicus, Seoul, Republic of Korea) and degree of airway resistance was assessed by measuring Penh (enhanced pause) values. The baseline value was measured under a normal respiratory condition, and then, PBS was inhaled using an ultrasonic atomizer for 3 min, and Penh values were measured over 3 min. […] Louis, Mo.) which is used in general methods for diagnosis of bronchial asthma were inhaled and Penh values were measured. Penh value is shown in the following Equation 1, and the resulting Penh value was expressed as a percent increase in Penh after inhalation of each concentration of methacholine. The baseline Penh (saline challenge) was expressed as 100%.
Te: expiratory time (sec), the time from inspiration to the next inspiration
RT: relaxation time, the elapsed time between the beginning of the expiration and the moment when the remaining 30% of the tidal volume has been reached during expiration
PEF: Peak expiration flow
PIF: Peak inspiration flow
To examine the effect of homoegonol on airway hyperresponsiveness caused by asthma occurrence, Penh value was measured according to the method in <Experimental Example 2>.

[10] = test system: fibrosis in subsegmental bronchi; assay: Fibrosis in subsegmental bronchi (Masson's trichrome staining); type: in vivo, Balb/c female mice; settings: asthma-induced mice, styraxlignolide A study; 1 hour prior to ovalbumin inhalation
Description: as §1

[11] = test system: reactive oxygen species; assay: Reactive oxygen species generation in bronchoalveolar lavage fluid (2,7-dichlorofluorescein diacetate); type: in vivo, Balb/c female mice; parameters: dose or concentration left out as unconfirmed; settings: asthma-induced mice, styraxlignolide A study, 1 hour prior to ovalbumin inhalation
Description: To prepare bronchial asthma-induced experimental animals, six-week-old Balb/c female mice of mean weight about 20 g were used. After one week of adaptation, individuals which had no observed abnormality on a basic physical examination were targeted. 200 μL of phosphate buffered saline (PBS)(pH 7.4) in which 2 mg of aluminum hydroxide (A8222, Sigma, St. Louis, Mo.) and 20 μg of ovalbumin (A5503, Sigma, St. Louis, Mo.) were suspended was injected into the peritoneal cavity at two-week intervals to result in sensitization. On days 28 to 30 after the first intraperitoneal administration of ovalbumin, inhalation challenge was performed for 30 min with 1% ovalbumin using an ultrasonic atomizer. 24 hours after the last antigen administration, airway hyperresponsiveness was measured. […]
To measure the amount of generated reactive oxygen species caused by administration of styraxlignolide A, some bronchoalveolar lavage fluid of each individual in <Example 2> was washed with PBS, and 10 μM 2,7-dichlorofluorescein diacetate (35845, Sigma, St. Louis, Mo.) was added thereto and bronchoalveolar lavage fluid was allowed to stand still in a room temperature dark room for 10 min, and the amount of generated reactive oxygen species was measured by a spectrofluorometer (Ex=480 nm, Em=522 nm).

[12] = test system: inflammatory cells in the airway mucosa; assay: Inflammatory cell infiltration in airway mucosa, inflammatory index (H&E staining); type: in vivo, Balb/c female mice; settings: asthma-induced mice, styraxlignolide A study; 30 mg/kg PO 1 hour prior to ovalbumin inhalation; scale 0-4
[13] = styraxlignolide A study, 30 mg/kg PO 1 hour prior to ovalbumin inhalation
[14] = homoegonol study, 30 mg/kg PO, bronchoalveolar lavage fluid
[15] = homoegonol study, 30 mg/kg PO, bronchoalveolar lavage fluid, 30 mg/kg
[16] = asthma-induced mice, styraxlignolide A study, 30 mg/mL PO 1 hour prior to ovalbumin inhalation

CC(C)(O)c1ccccc1CC[C@@H](SCC1(CC(=O)O)CC1)c1cccc(/C=C/c2ccc3ccc(Cl)cc3n2)c1 [Monte, montelukast, reference compound]
serum ALT ([1]; mouse, in vivo, po, 30 mg/kg): 122.50±14.94 IU/L
serum AST ([1]; mouse, in vivo, po, 30 mg/kg): 205.00±27.17 IU/L
numbers of eosinophils in bronchoalveolar lavage fluid ([2]; 30 mg/kg PO 1 hour prior to ovalbumin inhalation): 60.67±6.58
TGF-β1 concentrations in bronchoalveolar lavage fluid [3]: 215.9375 ± 13.4334 pg/mL
body weight ([4]; homoegonol study, 30 mg/kg PO 1 hour prior to ovalbumin inhalation): 21.08 ± 0.57 g
body weight [4, 13]: 21.04 ± 0.30 g
Total IgE level in bronchoalveolar lavage fluid [5, 14]: 104.7447 ± 9.7295 ng/mL
Total serum IgE level ([5]; homoegonol study, 30 mg/kg PO, serum, Table 2): 16.22 ± 2.6329 µg/mL
Number of cells, Other inflammatory cells [6, 14]: 48.84 ± 3.7377 ×10^3 cells/mouse
Number of cells, Eosinophils [6, 15]: 19.12±9.17 ×10^3 cells/mouse
Number of cells, Total inflammatory cells [6, 15]: 67.96±15.0532 ×10^3 cells/mouse
numbers of total inflammatory cells in bronchoalveolar lavage fluid [6, 13]: 193.29±19.99
Goblet cells %/bronchial epithelial cell unit ([7]; homoegonol study, 30 mg/kg PO, 30 mg/kg): 34.6476±11.5492%
IL-17 concentrations in bronchoalveolar lavage fluid [8]: 15.8409 ± 2.5686 pg/mL
Penh values ([9]; methacholine 0 mg/ml): 0.6071 ± 0.0618
Penh values ([9]; methacholine 12.5 mg/ml): 1.2979 ± 0.1537
Penh values ([9]; methacholine 25 mg/ml): 1.4748 ± 0.1639
Penh values ([9]; methacholine 50 mg/ml): 2.3069 ± 0.4225

COc1ccc(-c2cc3cc(CCCO[C@@H]4OC(CO[C@@H]5OC[C@@H](O)C(O)C5O)[C@@H](O)C(O)C4O)cc(OC)c3o2)cc1OC (stereo partly drawn) [styraxlignolide A]
serum ALT [1, 16]: 168.67±15.56 IU/L
serum AST [1, 16]: 245.33±12.87 IU/L
numbers of eosinophils in bronchoalveolar lavage fluid ([2]; 30 mg/mL PO 1 hour prior to ovalbumin inhalation): 20.77±2.34
numbers of total inflammatory cells in bronchoalveolar lavage fluid ([2]; 1 hour prior to ovalbumin inhalation): 147.83±12.61
area of a fibrosis stained region per 100 μm of a basement membrane perimeter [10]: 495.69±98.62 μm^2
generated amount of reactive oxygen species, reduction compared to the asthma-induced group [11]: 27.90%
body weight ([4]; styraxlignolide A study, 30 mg/mL PO 1 hour prior to ovalbumin inhalation): 21.04 ± 0.34 g
Ovalbumin-specific IgE level in bronchoalveolar lavage fluid ([5]; styraxlignolide A study, 1 hour prior to ovalbumin inhalation, bronchoalveolar lavage fluid): 15.4 ± 2.18 ng/mL
serum ovalbumin-specific IgE level ([5]; styraxlignolide A study, 1 hour prior to ovalbumin inhalation, serum, difference to asthma-induced group not significant): 382 ± 60.60 ng/mL
ratio of goblet cells to bronchiolar epithelial cells ([7]; styraxlignolide A study, 1 hour prior to ovalbumin inhalation): 29.52±8.02%
peribronchiolar inflammatory index [12]: 1.17±0.2
Penh (enhanced pause) values compared to the comparative groups ([9]; styraxlignolide A study, 30 mg/mL PO 1 hour prior to ovalbumin inhalation, methacholine 12.5, 25, or 50 mg/mL): reduced Penh values compared to the comparative groups
